The text below walks through data of paper PMC10197068 (Bioconjugate Chemistry, 2023).

Molecules are shown by their SMILES.

For test [1], the system named is G2T1 (DNA, G4) AGGGTTAGGGTTAGGGTTAGGGTTAGGGTTAGGGTTAGGGTTAGGG
The test can be described thus: CD melting at 295 nm. To be noted: 100 mM NaCl, 10 mM Li cacodylate, pH 7.3, 3 μM DNA.

In test [2] the test system is G2T6 (DNA, G4) AGGGTTAGGGTTAGGGTTAGGGTTATTATTATTATTATTAGGGTTAGGGTTAGGGTTAGGG
In words: CD melting at 295 nm. To be noted: 100 mM NaCl, 10 mM Li cacodylate, pH 7.3, 3 μM DNA.

Setting [3] is: 6 μM compound (12 μM salphen units).

As a reminder, the ΔTm is the shift of the melting midpoint relative to a reference. On to `C[N+](C)(C)CCOc1ccc(C=Nc2ccc(C(=O)NCc3cn(CC(=O)N[C@@H](CCCNC(=N)N)C(=O)N[C@@H](CCCCN)C(=O)N[C@@H](CCCCN)C(=O)N[C@@H](CCCNC(=N)N)C(=O)N[C@@H](Cn4cc(CNC(=O)c5ccc(N=Cc6ccc(OCC[N+](C)(C)C)cc6[O-])c(N=Cc6ccc(OCC[N+](C)(C)C)cc6[O-])c5)nn4)C(N)=O)nn3)cc2N=Cc2ccc(OCC[N+](C)(C)C)cc2[O-])c([O-])c1.[Pt+2].[Pt+2]`, for which the results for the shift in melting temperature (ΔTm) in test [1] (setting [3]) and in test [2] (setting [3]) were 16.3 °C and 13.8 °C, respectively. Regarding `C[N+](C)(C)CCOc1ccc(C=Nc2ccc(C(=O)NCc3cn(CC(=O)N[C@@H](CCCNC(=N)N)C(=O)N[C@@H](CCCNC(=N)N)C(=O)N[C@@H](Cn4cc(CNC(=O)c5ccc(N=Cc6ccc(OCC[N+](C)(C)C)cc6[O-])c(N=Cc6ccc(OCC[N+](C)(C)C)cc6[O-])c5)nn4)C(N)=O)nn3)cc2N=Cc2ccc(OCC[N+](C)(C)C)cc2[O-])c([O-])c1.[Pt+2].[Pt+2]`, in test [1] (setting [3]), the thermal shift (ΔTm) was determined as 14.6 °C. In the case of `C[N+](C)(C)CCOc1ccc(C=Nc2ccccc2N=Cc2ccc(OCC[N+](C)(C)C)cc2[O-])c([O-])c1.[Ni+2]`, the results for the thermal shift (ΔTm) in test [1] (12 μM compound) and in test [2] (12 μM compound) were 16 °C and 17 °C, respectively. The corresponding values for `C[N+](C)(C)CCOc1ccc(C=Nc2ccccc2N=Cc2ccc(OCC[N+](C)(C)C)cc2[O-])c([O-])c1.[Pt+2]` are 21 °C and 19 °C.
